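Results reflect a 48-hour exposure of cells in 96-well plates to compound at five concentrations. GI50 is the concentration that inhibits growth by half.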 The source made the active and inactive calls. Cut-off read from the data, not from the text of the source: active = GI50 up to about 1.1 µM and inactive = higher.

Test systems include A498; OVCAR-4; SK-MEL-28; Malme-3M; SK-MEL-5; HCT-116; 786-0; NCI-H23; SF-295; KM12; SNB-78; CCRF-CEM; NCI-H460; UO-31; RPMI-8226; SF-268; LOX IMVI; HCT-15; EKVX; SR.
Common to all, as to assay: NCI anticancer screen, dose series, 48 h

On to `COC(=O)C12OCC34C(CC5C(C)=C(O)C(=O)CC5(C)C3C(O)C1O)OC(=O)C(OC(=O)C=C(C)C)C24` (centres undefined), for which the GI50 was > 500 µM (inactive) in the assay with A498; < 0.215 µM (active) in the assay with OVCAR-4; 423 µM (inactive) with SK-MEL-28; 228 µM (inactive) in the assay on Malme-3M; 191 µM (inactive) in the assay on SK-MEL-5; > 489 µM (inactive) with HCT-116. Further, the GI50 is 0.275 µM (active) in the assay on 786-0; > 469 µM (inactive) in the assay on NCI-H23; > 500 µM (inactive) with SF-295; 411 µM (inactive) in the assay with KM12; > 476 µM (inactive) in the assay on SNB-78; 307 µM (inactive) with CCRF-CEM. In addition, the GI50 with NCI-H460 is 161 µM (inactive); in the assay with UO-31 it was > 500 µM (inactive); with RPMI-8226 it was 361 µM (inactive); with SF-268, > 500 µM (inactive); in the assay with LOX IMVI it was 283 µM (inactive); with HCT-15 it was above 500 µM. Further, the GI50 was > 469 µM (inactive) in the assay on EKVX and 0.215 µM (active) in the assay with SR.
For the compound `Cc1c(Cl)ccc2c1NC(=O)C2(O)CC(=O)c1ccc(Cl)cc1Cl` (centres undefined), the GI50 is 16.2 µM (inactive) in the assay on A498; > 50 µM (inactive) in the assay with OVCAR-4; > 50 µM (inactive) in the assay with SK-MEL-28; > 47.9 µM (inactive) with Malme-3M; > 50 µM (inactive) in the assay on SK-MEL-5; > 50 µM (inactive) in the assay on HCT-116. For the same compound, the GI50 in the assay with 786-0 was 27.2 µM (inactive); with NCI-H23, > 47.1 µM (inactive); with SF-295, > 50 µM (inactive); with KM12, > 50 µM (inactive); in the assay with SNB-78 it was 21.8 µM (inactive); in the assay on CCRF-CEM it was 10.3 µM (inactive). The GI50 with NCI-H460 is > 50 µM (inactive); with UO-31 it was > 50 µM (inactive); in the assay on RPMI-8226 it was > 41 µM (inactive); with SF-268 it was > 50 µM (inactive); with LOX IMVI, > 50 µM (inactive); with HCT-15, above 50 µM. Moreover, the GI50 in the assay with EKVX is > 46.5 µM (inactive); in the assay with SR, 0.264 µM (active).
For `CN(C)C(=S)/N=c1\sn(C)/c(=N\C(=S)N(C)C)n1C`, the GI50 is 65.6 µM (inactive) with A498; > 100 µM (inactive) in the assay with OVCAR-4; > 100 µM (inactive) in the assay on SK-MEL-28; 19.5 µM (inactive) with Malme-3M; 29.1 µM (inactive) in the assay with SK-MEL-5; > 100 µM (inactive) in the assay on HCT-116. Also, the GI50 in the assay on 786-0 was > 100 µM (inactive); in the assay with NCI-H23 it was 30.8 µM (inactive); in the assay with SF-295, > 100 µM (inactive); in the assay with KM12, 86.1 µM (inactive); with SNB-78 it was > 100 µM (inactive); in the assay on NCI-H460 it was 50.6 µM (inactive). The GI50 in the assay with UO-31 was > 100 µM (inactive); with RPMI-8226, > 100 µM (inactive); in the assay with SF-268 it was > 100 µM (inactive); with LOX IMVI, 45.1 µM (inactive); with HCT-15 it was above 100 µM; with EKVX, > 100 µM (inactive). Also, the GI50 in the assay on SR was > 100 µM (inactive).
On to `CCCCCCCCCCCCCCCC(=O)OCC(C[As](=O)(O)O)OC(=O)CCCCCCCCCCCCCCC` (centres undefined), for which the GI50 in the assay on A498 was > 100 µM (inactive); in the assay with OVCAR-4, > 100 µM (inactive); with SK-MEL-28, > 100 µM (inactive); with Malme-3M, > 74.8 µM (inactive); with SK-MEL-5, > 100 µM (inactive); in the assay with HCT-116, > 100 µM (inactive). Also, the GI50 was > 84.5 µM (inactive) in the assay with 786-0; > 100 µM (inactive) with NCI-H23; > 82.6 µM (inactive) in the assay with SF-295; > 100 µM (inactive) with KM12; 22.4 µM (inactive) in the assay with SNB-78; > 100 µM (inactive) with CCRF-CEM. Moreover, the GI50 in the assay with NCI-H460 is > 100 µM (inactive); with UO-31, > 100 µM (inactive); in the assay with RPMI-8226, > 100 µM (inactive); with SF-268 it was 68.9 µM (inactive); in the assay with LOX IMVI, > 100 µM (inactive); in the assay with HCT-15 it was above 66.5 µM. Further, the GI50 with EKVX and with SR was > 100 µM (inactive) each time.
For the compound `CC1(c2cccc(C3CCC4(C=CC3=O)OCCO4)c2)OCCO1` (centres undefined), the GI50 with A498 is 16.9 µM (inactive); in the assay on OVCAR-4 it was 7.28 µM (inactive); with SK-MEL-28 it was 16 µM (inactive); in the assay on Malme-3M, 4.71 µM (inactive); in the assay on SK-MEL-5 it was 14.6 µM (inactive); with HCT-116, 4.2 µM (inactive). Besides, the GI50 is 4.62 µM (inactive) with 786-0; 11.5 µM (inactive) in the assay on NCI-H23; 34.3 µM (inactive) with SF-295; 17.4 µM (inactive) in the assay with KM12; 19.4 µM (inactive) in the assay on SNB-78; 2.49 µM (inactive) in the assay with CCRF-CEM. Moreover, the GI50 in the assay on NCI-H460 was 16.4 µM (inactive); in the assay on UO-31 it was 6.64 µM (inactive); in the assay on RPMI-8226, 4.76 µM (inactive); with SF-268, 17.3 µM (inactive); in the assay on LOX IMVI it was 11.8 µM (inactive); in the assay with HCT-15, 5.36 µM. Further, the GI50 was 19.6 µM (inactive) in the assay on EKVX and 3.12 µM (inactive) with SR.
In the case of `Cc1nc(-n2nc(-c3ccccc3)cc2-c2ccccc2)sc1C(=O)CC(=O)C(=O)Nc1ccc(Cl)c(Cl)c1`, the GI50 is 40.7 µM (inactive) in the assay with A498; 66.4 µM (inactive) in the assay with OVCAR-4; > 100 µM (inactive) in the assay on Malme-3M; 64.6 µM (inactive) with HCT-116; > 100 µM (inactive) with 786-0; 43.1 µM (inactive) in the assay with NCI-H23. Further, the GI50 in the assay on SF-295 is 79.3 µM (inactive); with KM12 it was 35.9 µM (inactive); in the assay with SNB-78, > 100 µM (inactive); in the assay on CCRF-CEM it was 41.3 µM (inactive); in the assay with NCI-H460, 71.4 µM (inactive); in the assay with UO-31, 77.1 µM (inactive). Moreover, the GI50 in the assay on RPMI-8226 was 41.8 µM (inactive); in the assay on SF-268 it was 48.5 µM (inactive); in the assay on LOX IMVI it was 71 µM (inactive); with HCT-15 it was 56.1 µM; with EKVX, 15.1 µM (inactive); in the assay with SR, > 100 µM (inactive).
With `Cc1[nH]c2ccccc2c1C1Cc2ccccc2N1C(=O)C#Cc1ccc([N+](=O)[O-])cc1` (centres undefined), the GI50 is > 100 µM (inactive) in the assay with A498; 43.7 µM (inactive) in the assay on OVCAR-4; > 100 µM (inactive) in the assay on SK-MEL-28; > 100 µM (inactive) with Malme-3M; > 100 µM (inactive) with HCT-116; > 100 µM (inactive) in the assay with 786-0. In addition, the GI50 in the assay on NCI-H23 was > 100 µM (inactive); in the assay with SF-295 it was > 100 µM (inactive); in the assay on KM12, > 100 µM (inactive); in the assay with SNB-78, > 100 µM (inactive); in the assay on CCRF-CEM, 19.2 µM (inactive); in the assay on NCI-H460, > 100 µM (inactive). For the same compound, the GI50 was 51.9 µM (inactive) with UO-31; 76 µM (inactive) in the assay with RPMI-8226; > 100 µM (inactive) with SF-268; > 100 µM (inactive) with LOX IMVI; > 100 µM (inactive) with EKVX; 8 µM (inactive) in the assay on SR.
Take `COc1ccc(/C=N/NS(=O)(=O)c2ccccc2)cc1`: the GI50 with A498, in the assay with OVCAR-4, in the assay with SK-MEL-28, in the assay with Malme-3M, with SK-MEL-5 and in the assay with HCT-116 was > 100 µM (inactive) in each case. In addition, the GI50 with 786-0 is > 100 µM (inactive); in the assay on NCI-H23, > 100 µM (inactive); in the assay with SF-295, 93.5 µM (inactive); in the assay with KM12 it was > 100 µM (inactive); in the assay with SNB-78 it was > 100 µM (inactive); in the assay with CCRF-CEM it was > 100 µM (inactive). The GI50 with NCI-H460 was > 100 µM (inactive); with UO-31, > 100 µM (inactive); in the assay with RPMI-8226, > 100 µM (inactive); with SF-268 it was > 100 µM (inactive); with LOX IMVI, > 100 µM (inactive); in the assay on HCT-15, above 100 µM. Moreover, the GI50 in the assay with EKVX and with SR was > 100 µM (inactive) throughout.
In the case of `c1cc(-c2cn3c(n2)SCC3)ccn1`, the GI50 in the assay on A498 is > 100 µM (inactive); in the assay on OVCAR-4, > 100 µM (inactive); with Malme-3M it was > 100 µM (inactive); in the assay on SK-MEL-5, > 100 µM (inactive); in the assay on HCT-116 it was > 42.4 µM (inactive); in the assay on 786-0, 20.5 µM (inactive). Moreover, the GI50 in the assay with NCI-H23 was > 100 µM (inactive); with SF-295, > 100 µM (inactive); in the assay with KM12, > 100 µM (inactive); with SNB-78 it was > 100 µM (inactive); in the assay on CCRF-CEM, > 61.4 µM (inactive); with NCI-H460 it was > 55.3 µM (inactive). The GI50 was > 100 µM (inactive) with UO-31; > 65.5 µM (inactive) in the assay on RPMI-8226; > 100 µM (inactive) in the assay with SF-268; > 59.2 µM (inactive) in the assay on LOX IMVI; above 43.2 µM with HCT-15; > 68.9 µM (inactive) with EKVX. Further, in the assay with SR, the GI50 is > 100 µM (inactive).
With `Cc1cc(/N=C2\C=C(Nc3cc(C)on3)C(=O)c3ccccc32)no1`, the GI50 in the assay on A498 was > 100 µM (inactive); with OVCAR-4, > 100 µM (inactive); with SK-MEL-28, 60.5 µM (inactive); in the assay on Malme-3M, 21.5 µM (inactive); with SK-MEL-5, 1.82 µM (inactive); in the assay with HCT-116, 53.7 µM (inactive). The GI50 is 38.1 µM (inactive) in the assay with 786-0; 4.69 µM (inactive) in the assay on NCI-H23; 46.5 µM (inactive) in the assay on SF-295; > 71.8 µM (inactive) in the assay with KM12; 24.7 µM (inactive) in the assay with SNB-78; > 100 µM (inactive) with CCRF-CEM. For the same compound, the GI50 was > 67.8 µM (inactive) in the assay on NCI-H460; 43.7 µM (inactive) with UO-31; > 100 µM (inactive) in the assay on RPMI-8226; 36.9 µM (inactive) in the assay with SF-268; 8.71 µM (inactive) with LOX IMVI; 48.1 µM in the assay on HCT-15. The GI50 in the assay with EKVX is > 66.2 µM (inactive); in the assay on SR, > 100 µM (inactive).

The values above are taken from ChEMBL document CHEMBL1201862, “PubChem BioAssay data set” (2004).
